# In PubChem BioAssay (NCI):
# “And” between values parts separate entries of the source, which are not always exact repeats. Equal entries are not always repeated.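 Step 1: Grow cells in 96-well plates. Step 2: Expose to compound for 48 hours at 5 concentrations. Step 3: Interpolate endpoints linearly; if unreached, use highest concentration. TGI marks complete inhibition of growth.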
# What was measured:
# Assay in all cases: NCI-60 cell line screen, 48 h
# [1] = system: HCT-116 colon
# [2] = system: BT-549 breast
# [3] = system: 786-0 renal
# [4] = system: K-562 leukemia
# [5] = system: MOLT-4 leukemia
# [6] = system: DLD-1 colon
# [7] = system: NCI-H226 lung
# [8] = system: SNB-19 CNS
# [9] = system: CAKI-1 renal
# [10] = system: SF-539 CNS
# [11] = system: MCF7 breast
# [12] = system: HCC-2998 colon
# [13] = system: MDA-MB-435
# [14] = system: UO-31 renal
# [15] = system: NCI/ADR-RES ovarian
# [16] = system: A549 NSCLC
# [17] = system: A498 renal
# [18] = system: SR leukemia
# [19] = system: OVCAR-4 ovarian
# [20] = system: RXF 393 renal
# [21] = system: HL-60(TB) leukemia
# [22] = system: OVCAR-5 ovarian
# [23] = system: HOP-18 NSCLC
# [24] = system: NCI-H522 lung
# [25] = system: ACHN renal
# [26] = system: SK-MEL-28 melanoma
# [27] = system: LXFL 529 NSCLC
# [28] = system: DU-145 prostate
# [29] = system: M14 melanoma
# [30] = system: SW-620 colon
# [31] = system: SNB-78 CNS
# [32] = system: HOP-62 NSCLC
# [33] = system: PC-3 prostate
# [34] = system: SF-295 CNS
# [35] = system: RPMI-8226 leukemia
# [36] = system: HCT-15 colon
# [37] = system: UACC-62 melanoma
# [38] = system: KM12 colon
# [39] = system: KM20L2 colon
# [40] = system: LOX IMVI melanoma
# [41] = system: IGROV1 ovarian
# [42] = system: TK-10 renal
# [43] = system: NCI-H460 lung
# [44] = system: SK-MEL-5 melanoma
# [45] = system: SN12C renal
# [46] = system: UACC-257 melanoma
# [47] = system: HOP-92 NSCLC
# [48] = system: T-47D breast
# [49] = system: SF-268 CNS
# [50] = system: XF 498 CNS
# [51] = system: DMS 273 small cell lung
# [52] = system: HS 578T breast
# [53] = system: SK-MEL-2 melanoma
# [54] = system: CCRF-CEM leukemia
# [55] = system: DMS 114 small cell lung
# [56] = system: SK-OV-3 ovarian
# [57] = system: MDA-MB-231 breast
# [58] = system: U251 CNS
# [59] = system: NCI-H23 lung
# [60] = system: SNB-75 CNS
# [61] = system: OVCAR-8 ovarian
# [62] = system: COLO 205 colon
# [63] = system: EKVX NSCLC
# [64] = system: MALME-3M melanoma
# [65] = system: M19-MEL melanoma
# [66] = system: MDA-N
# [67] = system: OVCAR-3 ovarian
# [68] = system: HT29 colon
compound,measurement,setting,value
CC(Oc1ccc(Oc2cnc3ccc(Cl)cc3n2)cc1)C(=O)O (stereo not drawn),TGI,[1],> 100 µM
same,TGI,[2],> 100 µM
same,TGI,[3],> 100 µM
same,TGI,[4],> 100 µM
same,TGI,[5],> 100 µM
same,TGI,[6],> 100 µM
same,TGI,[7],> 100 µM and 33.2 µM
same,TGI,[8],> 100 µM
same,TGI,[9],> 100 µM
same,TGI,[10],> 100 µM
same,TGI,[11],> 100 µM
same,TGI,[12],> 100 µM
same,TGI,[13],> 100 µM
same,TGI,[14],> 100 µM
same,TGI,[15],> 100 µM
same,TGI,[16],> 100 µM
same,TGI,[17],> 100 µM
same,TGI,[18],> 100 µM
same,TGI,[19],> 100 µM
same,TGI,[20],> 100 µM
same,TGI,[21],> 100 µM
same,TGI,[22],> 100 µM
same,TGI,[23],> 100 µM
same,TGI,[24],99.4 µM and > 100 µM
same,TGI,[25],> 100 µM
same,TGI,[26],> 100 µM
same,TGI,[27],> 100 µM
same,TGI,[28],> 100 µM
same,TGI,[29],> 100 µM
same,TGI,[30],> 100 µM
same,TGI,[31],> 100 µM
same,TGI,[32],> 100 µM
same,TGI,[33],> 100 µM
same,TGI,[34],> 100 µM
same,TGI,[35],> 100 µM
same,TGI,[36],> 100 µM
same,TGI,[37],> 100 µM
same,TGI,[38],> 100 µM
same,TGI,[39],> 100 µM
same,TGI,[40],> 100 µM
same,TGI,[41],> 100 µM
same,TGI,[42],> 100 µM
same,TGI,[43],> 100 µM
same,TGI,[44],> 100 µM
same,TGI,[45],> 100 µM
same,TGI,[46],> 100 µM
same,TGI,[47],> 100 µM
same,TGI,[48],> 100 µM
same,TGI,[49],> 100 µM
same,TGI,[50],> 100 µM
same,TGI,[51],> 100 µM
same,TGI,[52],> 100 µM
same,TGI,[53],> 100 µM
same,TGI,[54],> 100 µM
same,TGI,[55],> 100 µM
same,TGI,[56],> 100 µM
same,TGI,[57],> 100 µM
same,TGI,[58],> 100 µM
same,TGI,[59],> 100 µM
same,TGI,[60],> 100 µM
same,TGI,[61],> 100 µM
same,TGI,[62],> 100 µM
same,TGI,[63],> 100 µM
same,TGI,[64],> 100 µM
same,TGI,[65],> 100 µM
same,TGI,[66],> 100 µM
same,TGI,[67],> 100 µM
same,TGI,[68],> 100 µM
